# Measurements published in patent publication US20120021061A1, “MEDICAL AND NUTRITIONAL FORMULATIONS” (Comvita New Zealand Limited, priority 2008, published 2012).
# Like-named read-outs stand apart in the source and are kept apart here.
# Legend:
# H. pylori SS1 = experiment: Viability of H. pylori SS1 after overnight incubation with MGO or honey (drop plate CFU); format: cell-based, Helicobacter pylori; conditions: for Helicobacter pylori viable count: catalase treated
# Protocol: The H. pylori SS1 strain was obtained and initially cultured on Campylobacter Selective Agar (CSA) plates and incubated at 37° C. under microaerobic conditions (10% Co2) for 48 h. Following culture, the isolates were checked for purity (microscopy, catalase and oxidase), after which SS1 was cultured in Brucella broth supplemented with 5% Fetal Bovine Serum and 1% Vitox under microaerobic conditions with shaking for 24 h. The effect of 1) methylglyoxal (MGO), density 1.17 g/ml, 2) Honey M1: Manuka honey O50336-10 (MGO content=0.593 mg/g), 3) Honey M2=Honey M1 adjusted to a pH of 9.0, 4) Honey M3=Comvita Wound Care Honey 18+ (MGO content=0.6 mg/g) and 5) Honey C: Control honey (100% Australian Honey, Leabrook Farms, Australia) on H. pylori was determined. MGO at concentrations of 1, 5, 10, 20, 50 and 100 mg/L were prepared by dissolving an appropriate amount of MGO in Brucella broth. To ensure an equivalent concentration of MGO in the Manuka honeys, the appropriate weight of honey (Honey M1 and Honey M2=6.75 g), (Honey M3=6.67 g) was measured out, after which an equal volume of Brucella broth at 37° C. was added to the honey and this was vortexed to aid mixing. Following vortexing, an equal volume of catalase solution (2 mg/ml) prepared from bovine liver was added to negate the effect of hydrogen peroxide, and this was again vortexed to aid mixing. The total volume was then adjusted to 40 ml using Brucella broth. […] The control Honey C was prepared in a similar fashion starting with an initial weight=6.71 g). To avoid contamination with lactic acid bacteria that are commonly present in honey (e.g. Leuconostoc citreum and Lactococcus garvieae), preparations of honey M1 and Honey C were filter sterilized through 0.22 µm pore size membrane filters prior to use in the in vitro assay. The Comvita wound care 18+ honey was not filter sterilised as this product undergoes sterilisation on manufacture. […] H. pylori were grown in broth culture overnight as described above. Following incubation, cells were washed once and resuspended in Brucella broth to an Optical Density (OD) 600 1.5. Ten pl of the microbial suspension was then inoculated into wells of a 96-well microtiter plate containing 200 pl of broth, supplemented with a range of concentrations of MGO (0, 1, 5, 10, 20, 50 and 100 mg/L), or an equivalent concentration of MGO contained in the Manuka honeys, or the same percentage of control honey. Each of the concentrations of MGO, MGO in the Manuka honeys and the control honey were tested in triplicate. Following addition of H. pylori to the microtiter plates, these were incubated under microaerobic conditions (10% CO2) overnight. Following incubation the number of viable colonies in the wells was assessed using the drop plate method. Following incubation the number of visible colonies on CSA agar plates were counted and the colony forming units (CFU)/ml calculated.
# IL-10 = experiment: Cytokine production by peripheral blood mononuclear cells, IL-10; format: cell-based; conditions: human PBMC supernatants; FIG. 10
# Protocol: (§1) An experiment was completed using three honey samples, the first being a high UMF manuka honey containing 1002 mg of MGO/kg, a moderate UMF manuka honey containing 649 mg of MGO/kg, a clover honey containing minimal MGO/kg and pure MGO alone. Results were compared against a negative control with cells alone […] and PHA as the inflammatory agent. Human blood was collected from six donors and peripheral blood mononuclear cells were separated by Ficoll gradients. Donor bloods were processed in pairs. The experiments tested the effect of the honey on the blood cells and the levels of cytokines produced. Supernatents from cells incubated with varying honey and MGO concentrations were collected and assayed for a number of pro and anti-inflammatory cytokines. Cytokines are molecules secreted by cells that are involved in communication between cells. Cytokines bind to specific receptors on cell surfaces and the signals then created can alter cellular functions. The cytokines tested in this study were IL-1β, IL-10 and […]. Cytokines were measured using a biorad, bioplex suspension array system.
# Helicobacter pylori = Helicobacter pylori infected mice fed honey; format: in vivo; conditions: honey 2.8 g/kg body weight, MGO given in sugar solution
# Text: An experiment was completed feeding manuka honey with a UMF 22 to Helicobacter pylori infected mice at a rate of 2.8 g/kg body weight honey.
# neutrophils = experiment: Neutrophil superoxide production with honeys of increasing MGO; format: cell-based; conditions: increasing MGO concentrations in honey
# Text: The inventors conducted an experiment to determine whether increasing MGO concentrations also increase the ability of honey with the MGO to prevent or slow neutrophils from making superoxides (a part of the inflammatory response).
# IL-1β = experiment: Cytokine production by peripheral blood mononuclear cells, IL-1β; format: cell-based; conditions: human PBMC supernatants; FIG. 9
# Protocol: as §1
# TNFα = experiment: Cytokine production by peripheral blood mononuclear cells, TNFα; format: cell-based; conditions: human PBMC supernatants; FIG. 11
# Protocol: as §1
# E. coli O157/Nissle = format: cell-based; conditions: no honey
compound,measurement,setting,value
"CC(=O)C=O [MGO (pH 9), methylglyoxal]",Helicobacter pylori viable count,"H. pylori SS1; MGO conc 50 mg/L, honey conc 8.4%, listed as MGO at pH 9",6.9×10^6 CFU/ml
same,Helicobacter pylori viable count,"H. pylori SS1; MGO conc 100 mg/L, honey conc 16.7%, listed as MGO at pH 9",1.7×10^6 CFU/ml
"CC(=O)C=O [MGO, methylglyoxal]",IL-10 values,IL-10,not affected
same,H. pylori bacteria numbers in infected mice,Helicobacter pylori,does not reduce bacteria numbers alone
same,Ability to prevent or slow neutrophils from making superoxides,neutrophils,made no difference at all
same,IL-1β production,IL-1β,no effect
same,TNFα production,TNFα,no effect
same,MGO concentration at which CFU of H. pylori SS1 were reduced,H. pylori SS1; MGO alone or equivalent MGO in honey,≥ 20 mg/L
same,Helicobacter pylori viable count,"H. pylori SS1; MGO conc 20 mg/L, honey conc 4.2%",7.1×10^6 CFU/ml
same,Helicobacter pylori viable count,"H. pylori SS1; MGO conc 50 mg/L, honey conc 8.4%",7.0×10^5 CFU/ml
same,Helicobacter pylori viable count,"H. pylori SS1; MGO conc 100 mg/L, honey conc 16.7%",1.1×10^4 CFU/ml
"OO [Peroxide, hydrogen peroxide]",Mean inhibition zone (n = 3),E. coli O157/Nissle; peroxide 36.7 mM + catalase 1000 U/mL,0.0 mm
same,Mean inhibition zone (n = 3),E. coli O157/Nissle; peroxide 36.7 mM alone,3.3 mm
Catalase,Mean inhibition zone (n = 3),E. coli O157/Nissle; catalase 1000 U/mL alone,0.0 mm
